According to US10100011B2, “Pentadienoyl piperidine derivative and use thereof” (Industry-Academic Cooperation Foundation, Yonsei University, priority 2014, dated 2018):

What was measured:
3T3L1 cells = experiment: Adipocyte differentiation inhibition in preadipocytes (Oil-red O staining); assay type: cell-based, mouse; settings: for adipocyte differentiation inhibition effect (in words): different concentrations
Method: Preadipocytes, 3T3L1 cells, were aliquoted into a 12-well plate and cultured in a DMEM medium containing 1% penicillin-streptomycin, 1% nonessential amino acid, and 10% fetal bovine serum (FBS) in a 5% CO2 incubator at 37° C. until confluence. The 3T3L1 cells grown to confluence were cultured for two days in a medium containing 0.5 mM isobutyl-methylxanthine, 1 μM dexamethasone (MDI), and 1 μg/ml insulin, thereby being differentiated into adipocytes. Subsequently, the differentiated adipocytes were further cultured for two days in a DMEM medium including 1 μg/ml insulin, thereby being differentiated into mature adipocytes. Subsequently, the differentiated mature adipocytes were further cultured for 10 days while replacing a used DMEM medium with a new DMEM medium every two days. As a result, completely differentiated adipocytes were formed.
3T3-L1 cells were treated with each of a total of four novel compound types at different concentrations every two days from the first day of cell differentiation induction by addition of DMI. Each of the derivative compounds was dissolved in DMSO and then used. A negative control group including only DMSO was included in this experiment. Cell culture was carried out for 14 days. When differentiation was completed, a medium was removed and lipid droplets contained in differentiated adipocytes were stained. To stain the lipid droplets, cells were washed with phosphate buffered saline (PBS) twice and then fixed with 10% buffered neutral formalin for one hour, followed by washing with PBS once. Subsequently, 1 ml of Oil-red-O dye for staining lipid droplets red was fed into a 12-well plate and lipid droplets were stained for one hour, followed by washing with distilled water twice. To measure the concentration of neutral fat contained in the differentiated 3T3L1 cells, the stained lipid droplets were dissolved in 1 ml of isobutanol, followed by measuring an O.D value at 600 nm.

C57BL/6J mice = experiment: Body weight and visceral fat weight in mice fed high-fat diet; assay type: in vivo, mouse; settings: high-fat diet with about 0.05% compound (sibutramine about 0.01%), 10 weeks
Method: An obesity induction diet used in this experiment was a high-fat diet (HFD: 40% fat calories, 17 g of lard+3% corn oil/100 g diet), and the compositions of diets including the LJ-2501, LJ-2488, LJ-2495, LJ-2496 compounds were identical to that of HFD, except that each of the compounds was included in an amount of about 0.05% (Table 2). As a control drug, an anti-obesity drug, sibutramine (Sibut), was added in an amount of about 0.01% to the high-fat diet and a normal diet group (Chow) was fed with commercial rodent chow.
5-week old 40 male C57BL/6J mice (Orient Bio., Korea) were fed with hard feed and accommodated in a laboratory environment for one week. Subsequently, in accordance with a randomized block method, the mice were randomly grouped into a normal diet group, a high-fat diet control group, two experimental substance groups, and […] and raised for a total of 10 weeks (n=8/group). Diets were supplied with water between 10 am and 11 am every day. An intake amount was measured every day and the body weights of the mice were measured every week. To prevent temporal weight change due to feed intake, feedboxes were removed and, after two hours, the body weights were measured. The experimental animals were fasted for 12 hours or more and then anesthetized with diethyl ether, followed by collecting blood, liver, and visceral adipose tissues (epididymal fat, perirenal fat, mesenteric fat, and retroperitoneal fat). The collected samples were washed with 0.1 M phosphate buffered saline (pH 7.4) and then weighed. Blood samples collected from abdominal aortas were centrifuged at 1000×g for 15 minutes, thereby separating plasma.

| Structure (SMILES) | EC50 (3T3L1 cells; Mus musculus, 3T3-L1, treated every two days during 14 days differentiation, Oil-red O O.D. 600 nm, read-out: preadipocyte differentiation inhibition effect, EC50 value) [µM] | visceral fat reduction effect, change vs HFD (given with minus sign) (C57BL/6J mice) [%] | weight reduction effect, change in cumulative weight gain vs HFD (given with minus sign) (C57BL/6J mice) [%] | adipocyte differentiation inhibition effect (in words) (3T3L1 cells) |
| --- | --- | --- | --- | --- |
| COc1ccc(OC)c(/C=C/C=C/C(=O)N2CCCCC2)c1 [LJ-2488, (2E,4E)-5-(2,5-dimethoxyphenyl)-1-(piperine-1-yl)penta-2,4-diene-1-one] | 2800 | −6 | −14 | – |
| CCOc1ccc(/C=C/C=C/C(=O)N2CCCCC2)cc1 [LJ-2495, (2E,4E)-5-(4-ethoxyphenyl)-1-(piperine-1-yl)penta-2,4-diene-1-one] | – | – | – | did not exhibit an adipocyte differentiation inhibition effect |
| CCCOc1ccc(/C=C/C=C/C(=O)N2CCCCC2)cc1 [LJ-2496, (2E,4E)-1-(piperine-1-yl)-5-(4-propoxyphenyl)penta-2,4-diene-1-one] | – | – | – | did not exhibit an adipocyte differentiation inhibition effect |
| CC(C)CC(N(C)C)C1(c2ccc(Cl)cc2)CCC1 (stereo not shown) [sibutramine, reference compound] | – | −22 | −33 | – |
